From US20240075088A1, “BIOACTIVE EXTRACTION METHOD” (Performance Labs Pte. Ltd., priority 2022, published 2024)

Assay: DPPH radicals scavenging capacity assay
Format: biochemical
Method: DPPH radicals scavenging capacity assay: The ability of the plant extract to scavenge DPPH free radicals was assessed by using the method described by Takao et al. (Takao et al., 1994).
The stock solution of the plant extract was prepared in methanol to achieve the concentration of 2000 μg/ml. Further, two-fold dilutions were made to obtain concentrations of 1000, 500, 250, 125, 62.5, 31.25, 15.62 μg/ml. Diluted solutions of extract (2 ml each) were mixed with 2 ml of DPPH methanol solution (80 μg/ml). After 30 min in darkness at room temperature, the absorbance was read in a spectrophotometer at 517 nm. The control samples consisted of 2 ml of methanol added to 2 ml of DPPH solution. Caffeoylquinic acid and ascorbic acid was used as a positive control. The experiment was performed in triplicate. Scavenging activity is expressed as the inhibition percentage calculated using the following equation: Scavenging activity (%)=100×[Acontrol−Asample)/Acontrol)], where Acontrol is the absorbance of the control and Asample is the absorbance of the extract.
It was obtained from the graph of scavenging activity (%) versus concentration of samples. Low IC50 value indicates strong ability of the extract to act as DPPH scavenger.
To evaluate the antioxidant activity of different fractions, an assay method based on the reduction of DPPH was performed.

Structure (SMILES)	antioxidant activity (DPPH), conclusion in words (inferred from comparison of the 20% and 70% ethanol fractions)	DPPH antioxidant assay IC50 (concentration at which 50% of DPPH radicals were scavenged, DPPH methanol solution 80 μg/ml, 30 min in darkness, absorbance 517 nm, triplicate)
Cn1c(=O)c2c(ncn2C)n(C)c1=O [caffeine]	did not contribute to antioxidant activity	
O=C1O[C@H]([C@@H](O)CO)C(O)=C1O [Ascorbic Acid, ascorbic acid]		59.4 µg/mL
